Tests used:
[1] = Metabolic stability in human liver microsomes assessed as parent compound remaining at 10 uM measured after 10 mins in presence of NADPH and GSH by UPLC-MS/MS analysis; format: ADME, Microsome; conditions: read-out: Stability
[2] = Metabolic stability in rat liver microsomes assessed as parent compound remaining at 10 uM measured after 10 mins in presence of NADPH and GSH by UPLC-MS/MS analysis; format: ADME, Microsome; conditions: read-out: Stability
[3] = Glutathione reactivity in human liver microsomes assessed as GSH-adduct formation at 10 uM incubated for 60 mins in presence of NADPH and GSH by HPLC-MS analysis; format: ADME, Microsome; conditions: 1 h
[4] = target: Inward rectifier potassium channel 2 (Homo sapiens, UniProt P63252); test: Inhibition of Kir 2.1 (unknown origin)
Inward rectifier potassium channel 2, sequence (P63252 whole entry): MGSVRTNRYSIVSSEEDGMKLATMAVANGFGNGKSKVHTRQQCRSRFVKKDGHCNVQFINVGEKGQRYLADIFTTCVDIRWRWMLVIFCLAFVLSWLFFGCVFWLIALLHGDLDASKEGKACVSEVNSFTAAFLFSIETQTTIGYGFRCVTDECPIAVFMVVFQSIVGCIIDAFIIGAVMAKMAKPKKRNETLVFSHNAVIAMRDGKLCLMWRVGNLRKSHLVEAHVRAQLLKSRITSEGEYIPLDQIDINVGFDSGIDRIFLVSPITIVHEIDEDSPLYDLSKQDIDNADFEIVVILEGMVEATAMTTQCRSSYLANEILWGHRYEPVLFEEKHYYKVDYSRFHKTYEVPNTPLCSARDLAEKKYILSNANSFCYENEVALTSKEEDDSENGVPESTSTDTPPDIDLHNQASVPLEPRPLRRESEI

[5] = target: Inward rectifier potassium channel 4 (Homo sapiens, UniProt P48050); test: Inhibition of Kir 2.3 (unknown origin)
[6] = target: ATP-sensitive inward rectifier potassium channel 10 (Homo sapiens, UniProt P78508); test: Inhibition of Kir 4.1 (unknown origin)
ATP-sensitive inward rectifier potassium channel 10, sequence (P78508 whole entry): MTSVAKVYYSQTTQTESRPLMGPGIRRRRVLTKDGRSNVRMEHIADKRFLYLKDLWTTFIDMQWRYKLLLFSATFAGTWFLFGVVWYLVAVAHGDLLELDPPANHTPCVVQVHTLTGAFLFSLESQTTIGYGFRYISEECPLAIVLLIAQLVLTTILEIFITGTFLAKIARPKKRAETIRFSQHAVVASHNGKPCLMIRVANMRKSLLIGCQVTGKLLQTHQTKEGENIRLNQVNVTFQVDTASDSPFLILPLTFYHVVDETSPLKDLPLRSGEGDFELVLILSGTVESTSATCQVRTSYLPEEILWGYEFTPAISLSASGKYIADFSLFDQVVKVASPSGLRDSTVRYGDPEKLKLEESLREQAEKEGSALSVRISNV

[7] = target: Inward rectifier potassium channel 13 (Homo sapiens, UniProt O60928); test: Inhibition of Kir 7.1 (unknown origin)
[8] = Permeability of compound from apical to basolateral side in human Caco-2 cells; format: ADME, cell-based; conditions: read-out: permeability
[9] = Permeability of compound from basolateral to apical side in human Caco-2 cells; format: ADME, cell-based
Cytochrome P450 1A2 = Cytochrome P450 1A2 (Homo sapiens, UniProt P05177); test: Inhibition of CYP1A2 in human liver microsomes; format: ADME, Microsome
Cytochrome P450 2B6 = Cytochrome P450 2B6 (Homo sapiens, UniProt P20813); test: Inhibition of CYP2B6 in human liver microsomes; format: ADME, Microsome
Cytochrome P450 2C8 = Cytochrome P450 2C8 (Homo sapiens, UniProt P10632); test: Inhibition of CYP2C8 in human liver microsomes; format: ADME, Microsome
Cytochrome P450 2C9 = Cytochrome P450 2C9 (Homo sapiens, UniProt P11712); test: Inhibition of CYP2C9 in human liver microsomes; format: ADME, Microsome
Cytochrome P450 2C9, sequence (P11712 whole entry): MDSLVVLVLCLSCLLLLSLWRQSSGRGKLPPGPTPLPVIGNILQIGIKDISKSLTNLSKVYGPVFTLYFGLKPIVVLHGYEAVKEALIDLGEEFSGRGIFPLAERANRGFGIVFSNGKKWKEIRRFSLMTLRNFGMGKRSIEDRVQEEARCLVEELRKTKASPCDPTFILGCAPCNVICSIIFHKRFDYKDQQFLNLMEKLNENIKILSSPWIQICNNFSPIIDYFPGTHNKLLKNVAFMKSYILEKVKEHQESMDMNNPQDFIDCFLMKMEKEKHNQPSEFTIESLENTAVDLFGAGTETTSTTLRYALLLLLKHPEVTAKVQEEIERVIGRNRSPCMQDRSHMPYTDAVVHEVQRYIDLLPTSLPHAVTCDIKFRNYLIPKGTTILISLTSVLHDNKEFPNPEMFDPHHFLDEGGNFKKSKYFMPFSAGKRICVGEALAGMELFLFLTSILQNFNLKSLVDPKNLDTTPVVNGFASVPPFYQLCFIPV

Cytochrome P450 2C19 = Cytochrome P450 2C19 (Homo sapiens, UniProt P33261); test: Inhibition of CYP2C19 in human liver microsomes; format: ADME, Microsome
Cytochrome P450 2D6 = Cytochrome P450 2D6 (Homo sapiens, UniProt P10635); test: Inhibition of CYP2D6 in human liver microsomes; format: ADME, Microsome
Cytochrome P450 3A4 [10] = target: T1, Cytochrome P450 3A4 (Homo sapiens, UniProt P08684); test: Inhibition of CYP3A4 in human liver microsomes using midazolam as substrate; format: ADME, Microsome
T1 sequence (P08684 whole entry): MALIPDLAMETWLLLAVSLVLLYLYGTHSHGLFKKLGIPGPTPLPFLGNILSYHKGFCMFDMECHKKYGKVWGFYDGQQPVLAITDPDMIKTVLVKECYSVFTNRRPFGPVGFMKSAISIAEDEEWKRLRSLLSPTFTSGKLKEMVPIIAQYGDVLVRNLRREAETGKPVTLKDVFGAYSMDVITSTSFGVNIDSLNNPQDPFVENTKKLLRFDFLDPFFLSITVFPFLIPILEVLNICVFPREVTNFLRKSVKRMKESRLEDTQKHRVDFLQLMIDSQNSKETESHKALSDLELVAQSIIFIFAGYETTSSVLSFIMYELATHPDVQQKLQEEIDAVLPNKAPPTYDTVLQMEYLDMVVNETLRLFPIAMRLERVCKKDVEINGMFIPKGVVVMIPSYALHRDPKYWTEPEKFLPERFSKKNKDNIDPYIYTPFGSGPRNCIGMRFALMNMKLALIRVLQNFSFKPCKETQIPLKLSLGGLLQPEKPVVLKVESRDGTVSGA

Cytochrome P450 3A4 [11] = target: T1, Cytochrome P450 3A4; test: Inhibition of CYP3A4 in human liver microsomes using testosterone as substrate; format: ADME, Microsome
CYP1A2 = CYP1A2 (Homo sapiens, UniProt P05177); test: Induction of CYP1A2 (unknown origin); format: ADME
CYP2B6 = CYP2B6 (Homo sapiens, UniProt P20813); test: Induction of CYP2B6 (unknown origin); format: ADME
CYP3A4 = CYP3A4 (Homo sapiens, UniProt P08684); test: Induction of CYP3A4 (unknown origin); format: ADME
CYP3A4, sequence (P08684 whole entry): as above

[12] = Protein binding in human plasma assessed as unbound fraction; format: ADME, cell-free
[13] = Protein binding in rat plasma assessed as unbound fraction; format: ADME, cell-free
[14] = Protein binding in mouse plasma assessed as unbound fraction; format: ADME, cell-free
[15] = Protein binding in dog plasma assessed as unbound fraction; format: ADME, cell-free, Canis lupus familiaris
[16] = Protein binding in Cynomolgus monkey plasma assessed as unbound fraction; format: ADME, cell-free, Macaca fascicularis
[17] = target: Nuclear receptor subfamily 1 group I member 2 (Homo sapiens, UniProt O75469); test: Activation of PXR (unknown origin)
[18] = Cytotoxicity against human HepG2 cells; format: toxicity, cell-based
[19] = target: Multidrug and toxin extrusion protein 1 (Homo sapiens, UniProt Q96FL8); test: Inhibition of MATE1 (unknown origin)
Bile salt export pump = Bile salt export pump (Homo sapiens, UniProt O95342); test: Inhibition of BSEP (unknown origin)
[20] = target: Solute carrier organic anion transporter family member 1B1 (Homo sapiens, UniProt Q9Y6L6); test: Inhibition of OATP1B1 (unknown origin)
Solute carrier organic anion transporter family member 1B1, sequence (Q9Y6L6 whole entry): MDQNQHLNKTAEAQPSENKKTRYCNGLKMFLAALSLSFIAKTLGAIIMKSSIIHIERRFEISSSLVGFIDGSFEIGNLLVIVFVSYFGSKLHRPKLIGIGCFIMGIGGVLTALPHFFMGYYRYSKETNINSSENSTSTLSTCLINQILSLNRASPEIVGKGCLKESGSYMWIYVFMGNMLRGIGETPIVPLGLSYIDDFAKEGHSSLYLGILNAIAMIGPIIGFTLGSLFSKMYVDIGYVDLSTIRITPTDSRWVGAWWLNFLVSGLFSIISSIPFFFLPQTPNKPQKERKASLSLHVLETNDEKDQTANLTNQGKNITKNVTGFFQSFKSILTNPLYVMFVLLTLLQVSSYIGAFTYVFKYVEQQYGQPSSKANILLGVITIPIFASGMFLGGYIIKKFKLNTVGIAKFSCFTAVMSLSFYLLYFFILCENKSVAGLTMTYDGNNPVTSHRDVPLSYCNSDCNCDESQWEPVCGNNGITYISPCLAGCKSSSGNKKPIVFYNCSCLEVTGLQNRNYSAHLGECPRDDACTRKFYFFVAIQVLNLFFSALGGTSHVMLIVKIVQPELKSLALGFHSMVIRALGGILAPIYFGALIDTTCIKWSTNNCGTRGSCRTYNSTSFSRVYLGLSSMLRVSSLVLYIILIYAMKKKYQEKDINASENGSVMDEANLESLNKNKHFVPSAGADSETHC

[21] = target: Solute carrier organic anion transporter family member 1B3 (Homo sapiens, UniProt Q9NPD5); test: Inhibition of OATP1B3 (unknown origin)
Solute carrier organic anion transporter family member 1B3, sequence (Q9NPD5 whole entry): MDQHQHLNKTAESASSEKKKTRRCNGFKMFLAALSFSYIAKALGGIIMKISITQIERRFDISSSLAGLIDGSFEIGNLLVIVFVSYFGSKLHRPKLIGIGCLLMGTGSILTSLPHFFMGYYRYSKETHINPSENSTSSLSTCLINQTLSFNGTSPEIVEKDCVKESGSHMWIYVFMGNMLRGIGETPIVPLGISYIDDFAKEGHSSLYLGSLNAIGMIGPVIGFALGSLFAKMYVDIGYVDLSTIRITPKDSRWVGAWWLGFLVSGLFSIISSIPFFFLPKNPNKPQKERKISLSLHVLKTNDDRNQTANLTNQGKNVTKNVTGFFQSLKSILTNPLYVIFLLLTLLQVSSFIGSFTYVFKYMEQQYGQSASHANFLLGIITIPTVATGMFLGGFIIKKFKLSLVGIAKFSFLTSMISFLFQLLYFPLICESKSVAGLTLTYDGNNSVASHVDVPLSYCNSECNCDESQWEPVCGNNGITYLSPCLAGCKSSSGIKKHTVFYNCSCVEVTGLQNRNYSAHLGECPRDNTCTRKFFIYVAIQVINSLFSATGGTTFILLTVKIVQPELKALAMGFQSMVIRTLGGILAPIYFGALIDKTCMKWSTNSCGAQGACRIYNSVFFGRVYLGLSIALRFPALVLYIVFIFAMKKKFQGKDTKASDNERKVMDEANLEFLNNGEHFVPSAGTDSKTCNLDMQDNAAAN

[22] = target: Hepatic sodium/bile acid cotransporter (Homo sapiens, UniProt Q14973); test: Inhibition of NTCP (unknown origin)
[23] = target: ATP-binding cassette sub-family C member 2 (Homo sapiens, UniProt Q92887); test: Inhibition of MRP2 (unknown origin)
ATP-binding cassette sub-family C member 2, sequence (Q92887 whole entry): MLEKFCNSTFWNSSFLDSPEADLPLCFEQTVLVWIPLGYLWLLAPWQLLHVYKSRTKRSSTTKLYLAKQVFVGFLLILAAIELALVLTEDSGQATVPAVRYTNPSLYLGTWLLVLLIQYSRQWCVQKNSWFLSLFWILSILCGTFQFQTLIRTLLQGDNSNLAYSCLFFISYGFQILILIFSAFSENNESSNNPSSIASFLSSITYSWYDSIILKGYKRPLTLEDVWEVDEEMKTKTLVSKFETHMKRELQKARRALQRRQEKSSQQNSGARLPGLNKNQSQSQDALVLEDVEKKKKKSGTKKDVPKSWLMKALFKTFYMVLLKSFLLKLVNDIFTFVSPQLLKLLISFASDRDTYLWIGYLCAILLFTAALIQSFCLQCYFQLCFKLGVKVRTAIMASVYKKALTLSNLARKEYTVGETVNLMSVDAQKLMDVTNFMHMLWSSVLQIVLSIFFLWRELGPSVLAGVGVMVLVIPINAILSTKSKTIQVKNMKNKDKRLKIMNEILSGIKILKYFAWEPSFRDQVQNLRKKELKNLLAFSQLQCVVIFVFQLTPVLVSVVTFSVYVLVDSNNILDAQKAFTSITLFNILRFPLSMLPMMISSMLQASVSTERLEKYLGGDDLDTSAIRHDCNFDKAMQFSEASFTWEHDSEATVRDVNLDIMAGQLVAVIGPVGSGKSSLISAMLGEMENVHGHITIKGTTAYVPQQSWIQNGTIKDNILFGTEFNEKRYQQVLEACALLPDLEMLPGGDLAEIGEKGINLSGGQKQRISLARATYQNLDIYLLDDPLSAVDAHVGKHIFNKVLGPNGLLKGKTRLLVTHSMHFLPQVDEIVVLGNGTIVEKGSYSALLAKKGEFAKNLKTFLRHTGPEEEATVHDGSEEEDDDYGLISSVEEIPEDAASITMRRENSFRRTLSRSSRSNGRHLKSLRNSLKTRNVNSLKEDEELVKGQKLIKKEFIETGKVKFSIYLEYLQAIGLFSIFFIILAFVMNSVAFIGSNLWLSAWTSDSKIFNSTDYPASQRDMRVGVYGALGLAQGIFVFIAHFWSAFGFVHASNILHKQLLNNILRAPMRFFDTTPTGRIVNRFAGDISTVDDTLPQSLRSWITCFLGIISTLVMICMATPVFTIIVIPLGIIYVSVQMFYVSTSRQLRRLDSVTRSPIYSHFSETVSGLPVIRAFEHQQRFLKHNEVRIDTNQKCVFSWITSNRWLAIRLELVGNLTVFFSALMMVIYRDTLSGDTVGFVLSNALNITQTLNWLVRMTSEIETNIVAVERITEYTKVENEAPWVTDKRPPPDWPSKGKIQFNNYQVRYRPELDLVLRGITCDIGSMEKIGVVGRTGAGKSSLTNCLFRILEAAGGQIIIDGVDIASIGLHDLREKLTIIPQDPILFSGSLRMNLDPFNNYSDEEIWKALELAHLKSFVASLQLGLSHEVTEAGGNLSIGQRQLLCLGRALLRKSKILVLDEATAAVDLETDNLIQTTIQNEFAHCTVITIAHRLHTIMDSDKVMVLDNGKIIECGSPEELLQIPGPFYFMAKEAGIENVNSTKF

## Cc1cc(-n2ncc(CN3C[C@@H](c4ccc5c(c4C)COC5=O)N[C@@H](C)C3)n2)ncc1C#N
[1]
  remaining at 10 min, 10 µM: 90%
[2]
  remaining at 10 min, 10 µM: 92%
[3]
  Activity: Not Active
[4]
  IC50: > 10 µM
[5]
  IC50: > 10 µM
[6]
  IC50: > 10 µM
[7]
  IC50: > 10 µM
[8]
  Papp A→B: 110 ×10⁻⁶ cm/s
[9]
  permeability: 570 10^-6 cm/s
Cytochrome P450 1A2
  IC50: > 40 µM
Cytochrome P450 2B6
  IC50: > 40 µM
Cytochrome P450 2C8
  IC50: > 40 µM
Cytochrome P450 2C9
  IC50: > 40 µM
Cytochrome P450 2C19
  IC50: > 40 µM
Cytochrome P450 2D6
  IC50: > 40 µM
Cytochrome P450 3A4 [10]
  IC50: > 40 µM
Cytochrome P450 3A4 [11]
  IC50: > 40 µM
CYP1A2
  IC50: > 40 µM
CYP2B6
  IC50: > 40 µM
CYP3A4
  IC50: > 40 µM
[12]
  PPB: 52%
[13]
  PPB: 68%
[14]
  PPB: 83%
[15]
  PPB: 76%
[16]
  PPB: 74%
[17]
  EC50: > 50 µM
[18]
  IC50: > 100 µM
[19]
  IC50: 2700 nM
Bile salt export pump
  IC50: 7 µM
[20]
  IC50: > 18 µM
[21]
  IC50: > 18 µM
[22]
  IC50: > 18 µM
[23]
  IC50: > 18 µM

Reference: ChEMBL document CHEMBL5512682, “Discovery of BMS-986308: A Renal Outer Medullary Potassium Channel Inhibitor for the Treatment of Heart Failure” (J Med Chem, 2024)
